Data: patent US5298523A, “Method for treating transplant patients using mycalamide compounds” (priority 1992, dated 1994)
Entries after “also recorded” stand apart in the source; their conditions may differ.

Tests used:
[1] = system: graft vs. host reaction, CB6F1 mice grafted with BALB/c splenocytes; test: Graft vs. host reaction (Simonsen splenomegaly assay); assay type: in vivo, mouse; details: Experiment #2, 0.2 mg/kg i.p., Days 1-7
Experimental: Graft vs. host reaction. In vivo studies with mycalamide A utilized the […]→F1, GVHR model (Simonsen splenomegaly assay). CB6F1 male mice, 4 weeks of age, were injected intraperitoneally with 5×10^7 splenocytes from BALB/c male mice, 8 weeks of age, on day 0 (BALB/c→CB6F1). A syngeneic control group (CB6F1 →CB6F1) was similarly prepared and served as the negative control. For experiment 1, the grafted mice were divided into 5 treatment groups of 5 mice each. Groups were injected intraperitoneally with mycalamide A (dissolved initially in ethanol followed by dilution in sterile phosphate-buffered saline as a vehicle) or vehicle alone on days 1-7. For experiment 2, the grafted mice were divided into 7 treatment groups of 5 mice each and similarly injected intraperitoneally with mycalamide A, an immunosuppressive standard, didemnin B, or vehicle alone on days 1-7. On day 7 all groups were sacrificed, spleens excised, and the mean spleen weight and stimulation index calculated for each group. The stimulation index was calculated as follows: [formula] A spleen index of 1.3 or greater is considered a positive response.
^a CB6F1 mice (5 per group) were grafted with 5 × 10^7
BALB/c splenocytes, intraperitoneally on Day 0. Groups were injected
intraperitoneally with drug or vehicle on Days 1-7. Positive indicates
grafted mice receiving vehicle alone.
^b Number of surviving mice at the end of the experiment.
^c Stimulation index (SI) = (spleen weight of test group/body weight
of test group)/(spleen weight of syngeneic group/body weight of syngeneic
^d Suppression = [(SI of positive control) (SI of test group)]/[(SI
of positive control) (SI of syngeneic group)].
^e Didemnin B immunosuppressive standard.

murine CD4^+ T cells [2] = test: Activation of CD4+ T cells by anti-CD3 mAb/mB7; assay type: cell-based, murine (BALB/c); details: anti-CD3/mB7
Experimental: (§1) (A) Costimulation of T cells with anti-CD3 mAb and mB7. […] (B) Costimulation of T cells with mB7 and PMA. […] All cultures were incubated for 48 hours and pulsed with 1 μCi [ ^3 H] thymidine/well for the last 6 hours of the incubation period to assay for T cell proliferation.
(§2) (A) Costimulation of T cells with anti-CD3 mAb and mB7. 2×10^5 purified BALB/c CD4^+ T lymphocytes were stimulated with the indicated concentrations of anti-CD3 mAb in the presence of medium (.largecircle.), 2×10^4 paraformaldehyde-fixed CHO-mB7 cells (.quadrature.), or 2×10^4 paraformaldehyde-fixed CHO-mB7 cells in the presence of 0.1 nM FK506 (.gradient.), 1 nM FK506 (Δ), or 10 nM FK506 ( ). (B) Costimulation of T cells with mB7 and PMA. 2×10^5 purified BALB/c CD4^+ T lymphocytes were stimulated with the indicated concentrations of PMA and either medium (.largecircle.), 2×10^4 paraformaldehyde-fixed CHO-mB7 cells (.quadrature.), or paraformaldehyde-fixed CHO-mB7 cells in the presence of 0.1 nM FK506 (.gradient.), 1 nM FK506 (Δ), or 10 nM FK506 ( ). All cultures were incubated for 48 hours and pulsed with 1 μCi [^3 H] thymidine/well for the last 6 hours of the incubation period to assay for T cell proliferation.
as §2, with “pM mycalamide A” for “nM FK506”
mB7-mediated activation of murine CD4^+ T cells. Mouse T cells were purified as follows: splenocytes were depleted of red blood cells by treatment with Tris-NH4 Cl. T cells were enriched by nylon wool fractionation. CD4^+ T cells from BALB/c mice were purified by two-fold treatment with a mixture of anti-MHC Class II and anti-CD8 monoclonal antibodies and rabbit complement. Chinese hamster ovary cells (CHO) and CHO cells transfected with the murine B7 molecule (CHOmB7) were fixed with 1% paraformaldehyde prior to addition to the cultures. Microcultures were set up in duplicate 96-well plates. […] All cultures were incubated for 48 hours and pulsed with 1 μCi ^3 H-thymidine/well for the last 6 hours of the incubation period to assay for T cell proliferation.

[3] = T cell viability by trypan blue exclusion; assay type: cell-based, murine; details: t cells; 1 nM, Experiment 1, 20 hours; read-out: percentage of trypan blue-positive cells
Experimental: (§3) Determination of mycalamide A toxicity. The toxicity of mycalamide A on murine splenocytes and human PBL was determined using a colorimetric assay, based on the ability of viable cells to convert the colorless tetrazolium salt, 3-(4,5-dimethylthiazol-2yl)-2,5-diphenyl tetrazolium bromide (MTT) to a colored formazan product and trypan blue exclusion. For the colorimetric assay, a volume of 0.075 ml of an MTT solution (550 μg/ml of MTT in TCM) was added to test and control wells containing one of the populations of splenocytes or test wells and incubated for 5-6 hours following the initial incubation period. Microtiter plates were centrifuged at 100× g, supernatants carefully removed, and a volume of 0.20 ml of isopropyl alcohol was added to each well to dissolve the formazan crystals. The absorbance at 570 nm was determined for each well using an ELISA plate reader. […] As an additional parameter of toxicity, wells containing cultured lymphocytes with various dilutions of mycalamide A were examined with trypan blue, and the percentage of dye-excluding (viable) cells was determined.
(§4) Compounds were added as indicated. Cells were harveste
(§5) Each data point represents the mean value o

T cells = test: T cell viability by trypan blue exclusion; assay type: cell-based, murine; details: 1 nM
Experimental: as §3, §4, §5

murine CD4^+ T cells [4] = test: Activation of CD4+ T cells by PMA/mB7; assay type: cell-based, murine (BALB/c); details: in words
Experimental: as §1, §2
(A) Costimulation of T cells with anti-CD3 mAb and mB7. […]

Structure (SMILES)	% Suppression [1] [%]	Number of surviving mice at the end of the experiment [1]	Stim. index [1]	potency compared to CsA (murine CD4^+ T cells [2]; FK506 vs CsA)	effect on anti-CD3/mB7 activation of CD4+ cells (murine CD4^+ T cells [2]; in words)	cytotoxicity at 20 h, 0.001 µM [3] [%]	number of cells excluding trypan blue (T cells; Experiment 1, 20 hours)	number of cells excluding trypan blue (T cells; Experiment 2, 20 hours)	percentage of trypan blue-positive cells (T cells; Experiment 2, 20 hours) [%]	effect on PMA/CHO-mB7 stimulation of CD4+ cells (murine CD4^+ T cells [4])
CC[C@H](C)[C@H]1NC(=O)[C@@H](NC(=O)[C@@H](CC(C)C)N(C)C(=O)[C@@H]2CCCN2C(=O)C(C)O)[C@@H](C)OC(=O)[C@H](Cc2ccc(OC)cc2)N(C)C(=O)[C@@H]2CCCN2C(=O)[C@H](CC(C)C)NC(=O)[C@@H](C)C(=O)[C@H](C(C)C)OC(=O)C[C@@H]1O (stereo partly shown) [Didemnin B, didemnin B, reference compound]	113	5/5	0.93	–	–	–	–	–	–	–
C=CC[C@@H]1/C=C(\C)C[C@H](C)C[C@H](OC)[C@H]2O[C@@](O)(C(=O)C(=O)N3CCCC[C@H]3C(=O)O[C@H](/C(C)=C/[C@@H]3CC[C@@H](O)[C@H](OC)C3)[C@H](C)[C@@H](O)CC1=O)[C@H](C)C[C@@H]2OC [FK506, reference compound]	–	–	–	approximately 100 times	parallel those of CsA; also recorded: blocks the anti-CD3/mB7 activation of CD4^+ cells	< 2	1.40 × 10^6 cells	1.64 × 10^6 cells	< 2	not affected
